The values below come from patent US11370794B2, “Toll-like receptor antagonist compounds and methods of use” (Dynavax Technologies Corporation, priority 2016, dated 2022).

One experiment addresses T1, human TLR8 (Homo sapiens, UniProt Q9NR97).
T1 construct: endogenous in cells; host or cells: primary human monocytes (CD14 microbeads) from buffy coats of healthy donors
T1 sequence (Q9NR97 27-1041): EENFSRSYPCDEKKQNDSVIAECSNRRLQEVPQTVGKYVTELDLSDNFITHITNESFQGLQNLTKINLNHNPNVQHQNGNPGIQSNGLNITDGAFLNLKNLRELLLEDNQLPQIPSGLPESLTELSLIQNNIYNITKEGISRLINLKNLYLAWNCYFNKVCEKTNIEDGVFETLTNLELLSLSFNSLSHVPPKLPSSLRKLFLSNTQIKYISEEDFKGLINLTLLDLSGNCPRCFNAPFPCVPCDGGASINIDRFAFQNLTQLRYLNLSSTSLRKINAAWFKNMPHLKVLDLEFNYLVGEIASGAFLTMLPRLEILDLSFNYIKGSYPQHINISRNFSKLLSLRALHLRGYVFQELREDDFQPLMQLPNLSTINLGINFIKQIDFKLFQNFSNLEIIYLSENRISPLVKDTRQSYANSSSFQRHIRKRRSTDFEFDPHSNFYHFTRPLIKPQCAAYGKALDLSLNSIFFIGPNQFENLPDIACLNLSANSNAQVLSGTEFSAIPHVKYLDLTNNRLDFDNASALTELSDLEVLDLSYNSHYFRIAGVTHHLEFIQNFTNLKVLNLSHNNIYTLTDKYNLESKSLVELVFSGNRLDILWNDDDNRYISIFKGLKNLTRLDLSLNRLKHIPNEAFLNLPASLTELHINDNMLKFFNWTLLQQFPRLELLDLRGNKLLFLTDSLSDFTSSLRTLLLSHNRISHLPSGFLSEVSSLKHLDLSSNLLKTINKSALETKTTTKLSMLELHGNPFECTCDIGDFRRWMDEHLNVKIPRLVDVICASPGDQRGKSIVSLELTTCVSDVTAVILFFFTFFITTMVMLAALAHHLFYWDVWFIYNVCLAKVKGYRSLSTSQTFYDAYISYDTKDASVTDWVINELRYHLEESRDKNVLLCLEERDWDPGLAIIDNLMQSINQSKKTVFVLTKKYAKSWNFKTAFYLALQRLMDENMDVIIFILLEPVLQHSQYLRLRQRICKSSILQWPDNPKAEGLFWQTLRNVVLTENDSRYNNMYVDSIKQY
In words: Inhibition of human TLR8 in human monocytes (TNF-alpha / IL-1 beta ELISA). As to conditions: human monocytes, agonist ORN8L 100 μg/mL, 24 hours. Type of experiment: cell-based. The method, boiled down:
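Primary human monocytes from donor buffy coats (~200,000 cells/well) given serially diluted compound, then ORN8L RNA oligonucleotide agonist at 100 μg/mL final. After 24 h at 37 °C, supernatant TNF-alpha and/or IL-1 beta measured by ELISA; IC50 from the concentration-response of cytokine release.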
Background: In an ELISA, binding on a coated surface is turned into a signal by an enzyme label.

Another experiment concerns the target T2, human TLR9 (Homo sapiens, UniProt Q9NR96).
T2 construct: endogenous in cells; host or cells: primary human B cells (CD19 microbeads) from buffy coats of healthy donors
T2 sequence (Q9NR96 26-1032): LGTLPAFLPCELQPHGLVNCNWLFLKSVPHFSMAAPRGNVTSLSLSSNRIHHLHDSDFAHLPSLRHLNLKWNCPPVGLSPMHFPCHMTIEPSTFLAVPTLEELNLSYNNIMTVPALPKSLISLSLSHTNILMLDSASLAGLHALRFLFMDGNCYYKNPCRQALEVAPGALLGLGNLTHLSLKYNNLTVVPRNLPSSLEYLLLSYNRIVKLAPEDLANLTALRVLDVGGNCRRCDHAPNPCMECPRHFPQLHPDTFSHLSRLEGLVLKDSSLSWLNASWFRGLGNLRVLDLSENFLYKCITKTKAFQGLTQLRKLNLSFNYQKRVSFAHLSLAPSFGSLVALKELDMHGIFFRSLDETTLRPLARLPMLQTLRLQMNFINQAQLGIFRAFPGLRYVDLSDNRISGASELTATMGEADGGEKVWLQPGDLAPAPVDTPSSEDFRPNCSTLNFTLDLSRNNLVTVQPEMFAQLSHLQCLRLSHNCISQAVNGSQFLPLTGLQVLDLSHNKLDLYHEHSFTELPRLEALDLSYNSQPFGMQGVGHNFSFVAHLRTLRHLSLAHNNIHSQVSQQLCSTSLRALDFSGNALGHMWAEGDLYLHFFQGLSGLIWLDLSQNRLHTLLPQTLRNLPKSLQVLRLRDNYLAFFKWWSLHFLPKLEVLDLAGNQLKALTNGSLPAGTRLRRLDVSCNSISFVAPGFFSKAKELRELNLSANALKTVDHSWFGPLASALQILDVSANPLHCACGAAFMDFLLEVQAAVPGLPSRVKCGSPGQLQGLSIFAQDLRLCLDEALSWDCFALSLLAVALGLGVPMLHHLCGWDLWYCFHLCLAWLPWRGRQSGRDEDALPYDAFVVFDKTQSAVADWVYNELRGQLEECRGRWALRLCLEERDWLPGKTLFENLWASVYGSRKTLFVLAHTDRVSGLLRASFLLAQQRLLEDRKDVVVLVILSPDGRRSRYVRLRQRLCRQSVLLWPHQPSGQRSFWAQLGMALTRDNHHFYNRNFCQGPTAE
Description: Inhibition of human TLR9 in human B cells (IL-6 ELISA). The settings on record: for IC50: human B cells, agonist 1018 ISS 1 μM; for inhibits TLR9-dependent responses (in words): summary statement of the description. Type of experiment: cell-based. The gist of the method:
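Primary human B cells (CD19-isolated from donor buffy coats), ~300,000 per well, treated with compound (about 0.01–10 μM, some 0.001–30 μM) then 1 μM CpG oligonucleotide 1018 ISS. After 48 hours at 37° C, supernatant IL-6 measured by ELISA; IC50 from concentration-response of TLR9-dependent activity.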

Setting [1] is: IL-1 beta readout, read-out: Human TLR8 IC50 IL-1b.
Where [2] appears, read: TNF-alpha readout, read-out: Human TLR8 IC50 TNF-a.
Where [3] appears, read: IL-6 readout, 48 hours, range about 0.01 to 10 μM, read-out: Human TLR9 IC50.
Where [4] appears, read: IL-6, 48 hours, expanded dilution series about 0.001 to 30 μM, read-out: Human TLR9 IC50, expanded dilution series.

Where two headings read alike, the source gives them in different places.

Take `CCN(CC)CCNC(=O)C1CCN(c2nnc(C)c3c(C)n(-c4ccc(C)cc4)nc23)CC1` [20x, N-(2-(diethylamino)ethyl)-1-(3,4-dimethyl-2-(p-tolyl)-2H-pyrazolo[3,4-d]pyridazin-7-yl)piperidine-4-carboxamide]: the values for the IC50 on human TLR8 (setting [1]), on human TLR8 (setting [2]) and on human TLR9 (setting [3]) were 5040 nM, 4860 nM and 3 nM, respectively.

For `CCN1CCN(C(=O)C2CCN(c3nncc4cn(-c5ccc(C)cc5)nc34)CC2)CC1` [compound 40, (4-ethylpiperazin-1-yl)(1-(2-(p-tolyl)-2H-pyrazolo[3,4-d]pyridazin-7-yl)piperidin-4-yl)methanone], the IC50 stood at 226 nM at human TLR8 (setting [2]) and 26 nM at human TLR9 (setting [3]).

As to `Cc1ccc(-n2nc3c(N4CCC(C(=O)N5CCC(CN(C)C)C5)CC4)nnc(C)c3c2C)cc1` (centres unmarked) [compound 45, (1-(3,4-dimethyl-2-(p-tolyl)-2H-pyrazolo[3,4-d]pyridazin-7-yl)piperidin-4-yl)(3-((dimethylamino)methyl)pyrrolidin-1-yl)methanone], the IC50 on human TLR8 (setting [2]) is not below 20000 nM; at human TLR9 (setting [4]), 14 nM; at human TLR9 (setting [3]), 1 nM. Also, the “inhibits TLR9-dependent responses (in words)” value on human TLR9 is “inhibit”.

For the molecule `Cc1ccc(-n2nc3c(N4CCC(C(=O)N5CCC6(CC5)CNC6)CC4)nnc(C)c3c2C)cc1` [compound 73, (1-(3,4-dimethyl-2-(p-tolyl)-2H-pyrazolo[3,4-d]pyridazin-7-yl)piperidin-4-yl)(2,7-diazaspiro[3.5]nonan-7-yl)methanone], the results for the 50% inhibitory concentration (IC50) at human TLR8 (setting [2]) and on human TLR9 (setting [3]) were not below 20000 nM and 1140 nM, respectively.

For the molecule `Cc1ccc(-n2nc3c(N4CCC(C(=O)NCCCN(C)C)CC4)nncc3c2C)cc1` [compound 42, N-(3-(dimethylamino)propyl)-1-(3-methyl-2-(p-tolyl)-2H-pyrazolo[3,4-d]pyridazin-7-yl)piperidine-4-carboxamide], the IC50 at human TLR8 (setting [2]) was not below 20000 nM; at human TLR9 (setting [3]) it was 133 nM.

As for `Cc1ccc(-n2nc3c(N4CCC(C(=O)NCCN5CCOCC5)CC4)nnc(C)c3c2C)cc1` [17x, 1-(3,4-dimethyl-2-(p-tolyl)-2H-pyrazolo[3,4-d]pyridazin-7-yl)-N-(2-morpholinoethyl)piperidine-4-carboxamide], the values for the IC50 on human TLR8 (setting [2]) and on human TLR9 (setting [3]) were not below 20000 nM and 17 nM, respectively. For the same molecule, on human TLR9, the “inhibits TLR9-dependent responses (in words)” value was “inhibit”.

In the case of `Cc1ccc(-n2nc3c(N4CCN(C(=O)NCCCN(C)C)CC4)nnc(C)c3c2C)cc1` [Compound No. 76, 4-(3,4-dimethyl-2-(p-tolyl)-2H-pyrazolo[3,4-d]pyridazin-7-yl)-N-(3-(dimethylamino)propyl)piperazine-1-carboxamide], the IC50 at human TLR8 (setting [2]) is 11700 nM; on human TLR9 (setting [3]), 118 nM.

Take `CCN(CC)C1CCN(C(=O)C2CCN(c3nnc(C)c4c(C)n(-c5ccc(C)cc5)nc34)CC2)CC1` [compound 43, (4-(diethylamino)piperidin-1-yl)(1-(3,4-dimethyl-2-(p-tolyl)-2H-pyrazolo[3,4-d]pyridazin-7-yl)piperidin-4-yl)methanone]: the figures for the IC50 on human TLR8 (setting [2]), at human TLR9 (setting [4]) and on human TLR9 (setting [3]) were not below 20000 nM, 13 nM and 1 nM, respectively. Besides, the “inhibits TLR9-dependent responses (in words)” value at human TLR9 is on record as “inhibit”.

Regarding `Cc1ccc(-c2nc3c(N4CCC(C(=O)NCCCN(C)C)CC4)cccc3n2C)cc1` [Compound No. 53, N-(3-(dimethylamino)propyl)-1-(1-methyl-2-(p-tolyl)-1H-benzo[d]imidazol-4-yl)piperidine-4-carboxamide], the IC50 was not below 20000 nM on human TLR8 (setting [2]) and 2230 nM on human TLR9 (setting [3]).

For the molecule `CCCN1CCN(C(=O)C2CCN(c3nnc(C)c4c(C)n(-c5ccccc5)nc34)CC2)CC1` [64x, (1-(3,4-dimethyl-2-phenyl-2H-pyrazolo[3,4-d]pyridazin-7-yl)piperidin-4-yl)(4-propylpiperazin-1-yl)methanone], the results for the IC50 at human TLR8 (setting [1]), at human TLR8 (setting [2]) and on human TLR9 (setting [3]) were 660 nM, 900 nM and 13 nM, respectively.

For `Cc1ccc(-n2nc3c(N4CCC(C(=O)NCC(C)(C)CN)CC4)nnc(C)c3c2C)cc1` [Compound No. 7, N-(3-amino-2,2-dimethylpropyl)-1-(3,4-dimethyl-2-(p-tolyl)-2H-pyrazolo[3,4-d]pyridazin-7-yl)piperidine-4-carboxamide], the IC50 is more than 10000 nM on human TLR8 (setting [1]), more than 10000 nM on human TLR8 (setting [2]) and 360 nM at human TLR9 (setting [3]).

Consider `Cc1ccc(-n2nc3c(N4CCC(C(=O)N5CC6CN(C)CC6C5)CC4)nnc(C)c3c2C)cc1` (centres unmarked) [compound 72, (1-(3,4-dimethyl-2-(p-tolyl)-2H-pyrazolo[3,4-d]pyridazin-7-yl)piperidin-4-yl)(5-methylhexahydropyrrolo[3,4-c]pyrrol-2(1H)-yl)methano], for which the IC50 on human TLR8 (setting [2]) was 9170 nM; at human TLR9 (setting [3]), 12 nM.

Regarding `Cc1ccc(-n2nc3c(N4CCC(C(=O)NCCCN(C)C)CC4)nnc(Cl)c3c2C)cc1` [compound 36, 1-(4-chloro-3-methyl-2-(p-tolyl)-2H-pyrazolo[3,4-d]pyridazin-7-yl)-N-(3-(dimethylamino)propyl)piperidine-4-carboxamide], the IC50 came to 7680 nM on human TLR8 (setting [2]) and 1150 nM on human TLR9 (setting [3]).

On to `Cc1ccc(-n2nc3c(N4CCC(C(=O)NCCCN5CCCc6ccccc65)CC4)nnc(C)c3c2C)cc1` [2-5], for which the IC50 at human TLR8 (setting [1]), on human TLR8 (setting [2]) and at human TLR9 (setting [3]) was more than 10000 nM in each case.

Regarding `Cc1nnc(N2CCC(C(=O)NCCCN(C)C)CC2)c2nn(-c3cccnc3)c(C)c12` [compound 23, 1-(3,4-dimethyl-2-(pyridin-3-yl)-2H-pyrazolo[3,4-d]pyridazin-7-yl)-N-(3-(dimethylamino)propyl)piperidine-4-carboxamide], the figures for the IC50 at human TLR8 (setting [2]) and on human TLR9 (setting [3]) were not below 20000 nM and more than 10000 nM, respectively.

With `Cc1ccc(-n2cc3cnnc(N4CCC(C(=O)N5CCC(CN(C)C)C5)CC4)c3n2)cc1` (centres unmarked) [compound 60, (3-((dimethylamino)methyl)pyrrolidin-1-yl)(1-(2-(p-tolyl)-2H-pyrazol[3,4-d]pyridazin-7-yl)piperidin-4-yl)methanone], the IC50 on human TLR8 (setting [2]) is 980 nM; on human TLR9 (setting [3]), 2 nM.

As a reminder, the IC50 is the point on the concentration scale where inhibition reaches its midpoint.
